# Measured values published in US20140120180A1, “METAL COMPOUNDS MIXED OR SULPHATED, AS PHOSPHATE BINDERS” (CYTOCHROMA DEVELOPMENT INC., priority 1997, published 2014).
# Where “and” joins values, the source holds several entries; their conditions need not be identical. Equal values may be shown once.
# How the values were obtained:
# [1] = Phosphate binding capacity, 3.2 mmol compound in 25 ml 20 mmol l^-1 phosphate buffer (Example 1)
# Description: In Table 1, the values indicate respective percentage phosphate binding capacity at each of pH3, pH7 and pH8, n indicating the number of trials made for each compound.
# The phosphate binding capacity was measured by mixing 3.2 mmol of the compound with 25 ml of 20 mmol l^−1 phosphate buffer for 30 min at 25° C. For all compounds except CT2000, which compounds were dry powders, the compounds were merely weighed and dosed. For CT2000, the slurry was dosed in an amount such as to give an equivalent of 1 g of a powder dried to constant weight at 40° C. Sodium phosphate and sodium hydrogen phosphate were mixed to provide respective phosphate solutions at pH3, 7 and 8 (HCl being added to provide pH3). […] The results are shown in Table 1, in which n refers to the number of observations and the values as the % of phosphate precipitated out of solution, calculated as follows:
# where • x=mmol phosphate in solution after precipitation; and • y=mmol phosphate in solution without precipitation.
# [2] = Body weight and faecal hydration of rats fed binder in diet; conditions: rat, in vivo
# Description: Total faecal samples from each animal were mixed to ensure a homogeneity and duplicate one gram aliquots weighed. The percentage hydration of the stool was calculated following freeze drying to constant weight.
# Following feeding with the modified diets for 7 days, animals were transferred to metabowls for collection of total 24 hour faecal and urine excretion.
# [3] = Measurement of phosphate binding M4: 1 g in 25 ml 40 mmol l^-1 phosphate buffer, pH 3-8 (Examples 3 and 4)
# [4] = rat, in vivo
# [5] = Urine and faecal phosphate excretion in rats fed binder in diet; conditions: rat, in vivo
# [6] = Phosphate binding in food, Method 3 (food slurry in 0.01 M HCl)
# [7] = Phosphate binding capacity Method 2: as Method 1 but 20 mmol l^-1 phosphate buffer, increasing weight of compound
# [8] = 3.2 mmol compound, 25 ml 20 mmol l^-1 phosphate buffer, 30 min, 25° C.
Compound,"percentage phosphate binding capacity, pH 3 [1] [%]","percentage phosphate binding capacity, pH 7 [1] [%]","percentage phosphate binding capacity, pH 8 [1] [%]",mean weight gain [2],increase in phosphate binding at pH 3 compared to pH 8 [3] [fold],Percentage phosphate binding at pH 3 ([3]; pH 3),Percentage phosphate binding at pH 5 ([3]; pH 5),Percentage phosphate binding at pH 7 ([3]; pH 7),Percentage phosphate binding at pH 8 ([3]; pH 8),Serum aluminium [4] [µmol/L],Serum calcium [4],Serum iron [4],Urine aluminium [4] [µg],Total faecal phosphate [5],Urine phosphate [5] [µmol],faecal hydration compared to the controls [2],other results
"O=C([O-])[O-].[Ca+2] [CaCO3, calcium carbonate]",15.3 ± 0.5,9.7 ± 1.8,2.4 ± 1.8,38-53 grams,5.9,69% and 72%,63% and 70%,30% and 43%,8% and 16%,0.33 ± 0.05,2.93 ± 0.09 (n = 4)β mmol l^−1,41.9 ± 10.8 (n = 4) mmol l^−1,0.50 ± 0.21,213 ± 16 μmol g^−1 dry weight faeces,857 ± 25,–,–
Al2Mg6(OH)16CO3.4H2O [CT100],–,–,–,38-53 grams,–,–,–,–,–,–,–,–,–,–,–,"none of the animal groups treated with Mg(OH)2, CT 100 or CTFeMg showed an increase in faecal hydration compared to the controls",–
"[Mg+2].[OH-].[OH-] [Mg(OH)2, magnesium hydroxide]",61.1 ± 7.5,45.7 ± 5.9,12.5 ± 3.7,38-53 grams,3.7,81% and 87%,82% and 80%,54% and 58%,17% and 28%,0.35 ± 0.08,2.58 ± 0.05 (n = 3) mmol l^−1,29.4 ± 7.9 (n = 3) mmol l^−1,0.17 ± 0.07,183 ± 17 μmol g^−1 dry weight faeces,65 ± 53,"none of the animal groups treated with Mg(OH)2, CT 100 or CTFeMg showed an increase in faecal hydration compared to the controls","phosphate binding in food, comparison [6]: not the best when used in food; urinary magnesium excretion, comparison between groups [4]: significantly higher than the control group or animals treated with any other binder; phosphate binding at pH 3, comparison [7]: best phosphate binder"
"O.O.O=S(=O)([O-])[O-].[Ca+2] [CaSO4•2H2O, Calcium Sulphate Dihydrate]",–,–,–,–,–,–,–,–,–,–,–,–,–,–,–,–,Percentage phosphate bound at pH 3 ([3]; pH 3): 0%; Percentage phosphate bound at pH 5 ([3]; pH 5): 0%; Percentage phosphate bound at pH 7 ([3]; pH 7): 57%; Percentage phosphate bound at pH 8 ([3]; pH 8): 89%
[Ce+3].[OH-].[OH-].[OH-] [Ce(OH)3],–,–,–,–,–,–,–,–,–,–,–,–,–,–,–,–,"percentage phosphate binding capacity, pH 3 [1, 8]: 69.8 ± 7.5%; percentage phosphate binding capacity, pH 7 [1, 8]: 57.8 ± 8.9%; percentage phosphate binding capacity, pH 8 [1, 8]: 60.5 ± 1.5%"
